From patent US11312690B2, “Compounds, compositions, methods for treating diseases, and methods for preparing compounds” (UNIVERSITY OF LOUISVILLE RESEARCH FOUNDATION, INC., priority 2015, dated 2022)

Experiments:
MiaPaCa-2 [1] = experiment: Soft agar colony formation; type: cell-based, human
Experimental: FIG. 1. Effects of some compounds of Formula (I) on RalGEF inhibitor on soft agar growth and normal growth in 2D of pancreatic carcinoma cell lines. In FIGS. 1A and 1B, Panc-1 (ATCC® CRL-1469™) and MiaPaCa-2 (ATCC® CRL-1420™) mutant Ras containing pancreatic tumor cell lines were plated in soft agar in the presence of 10 μM or 0.9 μM of compound I-1 and scored for the formation of colonies. In FIGS. 1C and 1D, compound I-1 was then tested for the ability to inhibit cell growth on the same cell lines under normal 2D growth conditions on plastic. “0” is the carrier. Cells were seeded at the same density and scored after two weeks in culture.
Human pancreatic tumor cell lines MiaPaca-2 and Panc-1 contain activated K-Ras and were used in the initial screen to identify compound I-1. Soft agar colony formation remains an established in vitro assay to predict tumorigenicity and was used to predict tumorigenicity for compound I-1.
Several other compounds were tested against the Mia Paca-2 cell line using the soft agar colony formation in vitro assay in two experiments. For each table, DMSO was used as a control and, as such, within each table, the DMSO colonies are the measure against which each measurement in the corresponding table is compared.

[2] = molecular target: T1, interaction of K-Ras with RGL2 (Homo sapiens, UniProt O15211); experiment: Ras/RalGEF binding, immunoprecipitation and immunoblot from co-transfected HEK-293 cells; settings: 10 μM, HA K-Ras 12v and GFP-RGL2, IP/IB, FIG. 3B
T1 construct: expressed in transfected cells; host or cells: HEK-293
T1 sequence (O15211 1-777): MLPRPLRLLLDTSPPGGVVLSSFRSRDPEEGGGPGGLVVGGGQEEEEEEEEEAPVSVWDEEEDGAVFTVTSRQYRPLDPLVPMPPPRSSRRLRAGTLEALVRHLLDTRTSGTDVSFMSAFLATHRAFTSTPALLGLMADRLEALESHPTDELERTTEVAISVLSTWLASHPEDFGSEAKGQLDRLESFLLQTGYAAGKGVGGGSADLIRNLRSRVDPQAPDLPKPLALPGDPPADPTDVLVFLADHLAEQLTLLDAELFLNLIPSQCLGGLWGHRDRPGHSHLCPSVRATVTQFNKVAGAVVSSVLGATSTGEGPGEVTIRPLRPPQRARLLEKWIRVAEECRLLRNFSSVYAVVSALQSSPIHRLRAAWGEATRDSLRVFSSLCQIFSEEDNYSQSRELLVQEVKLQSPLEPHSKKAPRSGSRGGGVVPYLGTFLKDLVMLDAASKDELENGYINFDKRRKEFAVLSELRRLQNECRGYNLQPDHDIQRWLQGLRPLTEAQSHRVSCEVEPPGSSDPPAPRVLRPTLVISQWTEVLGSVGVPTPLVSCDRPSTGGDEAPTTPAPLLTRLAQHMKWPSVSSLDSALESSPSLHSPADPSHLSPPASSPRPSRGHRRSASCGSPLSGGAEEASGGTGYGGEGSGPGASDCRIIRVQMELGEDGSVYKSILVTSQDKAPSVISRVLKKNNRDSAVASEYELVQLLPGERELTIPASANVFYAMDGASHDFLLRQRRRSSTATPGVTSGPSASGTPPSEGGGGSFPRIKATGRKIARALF

Ras/Raf/MAPK pathway = experiment: MAPK pathway activation by phosphoERK antibody in cells with endogenous hyper-activated Ras; type: cell-based; settings: 10 μM
Experimental: Specific Inhibition of endogenous Ras/RalGEF signaling. FIG. 4. Specific suppression of Ral activation by some compounds of Formula (I). Cells with endogenous hyper-activated Ras were assayed for endogenous Ral activation in the presence or absence of inhibitor (10 μM) using a Cell Biolabs (SanDiego Calif.) kit. Compound I-1 was dissolved in DMSO; DMSO serves as the carrier negative control. IP is immunoprecipitation. IB is immunoblot. Cell lysates were then assayed for the levels of MAPK pathway activation using a phosphoERK antibody. They were the same. Actin is a loading control.
RalGEFs drive Ral into the active, GTP bound form so it can bind its effector RalBP1. […] Commercially available kits available from several vendors use RalBP1 attached to beads as an affinity reagent specific to the active form of Ral. By measuring the level of activated Ral and comparing it to the total levels of Ral, it is possible to measure the state of endogenous Ral activation. We assayed untransfected cells containing endogenous hyper-activated Ras for the effects of compound I-1 treatment on endogenous levels of active Ral levels.

Panc-1 = experiment: Normal 2D growth on plastic; type: cell-based, human; settings: normal 2D growth conditions on plastic, 1 week, FIG. 1C
Experimental: (§1) FIG. 1. Effects of some compounds of Formula (I) on RalGEF inhibitor on soft agar growth and normal growth in 2D of pancreatic carcinoma cell lines. In FIGS. 1A and 1B, Panc-1 (ATCC® CRL-1469™) and MiaPaCa-2 (ATCC® CRL-1420™) mutant Ras containing pancreatic tumor cell lines were plated in soft agar in the presence of 10 μM or 0.9 μM of compound I-1 and scored for the formation of colonies. In FIGS. 1C and 1D, compound I-1 was then tested for the ability to inhibit cell growth on the same cell lines under normal 2D growth conditions on plastic. “0” is the carrier. […]

MiaPaCa-2 [3] = experiment: Normal 2D growth on plastic; type: cell-based, human; settings: normal 2D growth conditions on plastic, 1 week, FIG. 1D
Experimental: as §1

Question: `COc1cccc(CNc2nc(CN(C)Cc3cccc(OC)c3)nc3sc(C)c(C)c23)c1` [Compound I-1] was tested. Which “ability of the cells to grow in soft agar” value (MiaPaCa-2 [1]; 10 μM, FIG. 1B) did it give?
Answer: Its value is “almost completely blocked”.

Question: What about the Colonies in agar (MiaPaCa-2 [1]; 10 μM, Table 2 experiment, DMSO control 182 ± 7 colonies) of the same compound?
Answer: The Colonies in agar was 0 ± 0.

Question: And the Colonies in agar (MiaPaCa-2 [1]; 10 μM, Table 3 experiment, DMSO control 1686 ± 114 colonies)?
Answer: Its Colonies in agar is 12 ± 1.

Question: What about the “tumorigenic phenotype in vitro” value (MiaPaCa-2 [1]; FIG. 1B) of the same compound?
Answer: The value was “blocks the tumorigenic phenotype in vitro at low μM or sub μM levels”.

Question: What about the IC50 (MiaPaCa-2 [1]; Homo sapiens, MIA PaCa-2, read-out: IC50 (concentration that inhibits 50% of colony formation)) of the same compound?
Answer: The IC50 was under 1000 nM.

Question: What about the “inhibition of RGL2 (Ras/RGL2 interaction)” value [2] of the same compound?
Answer: Its value is “also inhibited RGL2”.

Question: And the “Ras/Raf/MAPK pathway activation (levels of phospho ERK)” value (Ras/Raf/MAPK pathway)?
Answer: Its value is “no inhibition of the Ras/Raf/MAPK pathway activation was detected”.

Question: What about the “cell growth in 2D” value (Panc-1) of the same compound?
Answer: Its value is “no reduction in growth”.

Question: And the “cell growth in 2D” value (MiaPaCa-2 [3])?
Answer: Its value is “no reduction in growth”.
